Data reported in patent EP1480941B1, “UREA DERIVATIVES AS HIV ASPARTYL PROTEASE INHIBITORS” (priority 2002, dated 2003).

Tests used:
[1] = test system: laboratory viral strain NL4.3; assay: Anti-viral assay in vitro (MTT assay on infected MT-4 cells); format: cell-based, HIV-1; conditions: Human immunodeficiency virus 1, MT4, 144 h, infected MT-4 cells incubated six days, average of at least two determinations
Description: (§1) Anti-viral and cytotoxicity assays in vitro
(§2) We also use some WT clinical strains.

MT-4 = assay: Cytotoxicity assay in vitro (MTT assay, virus omitted); format: cell-based
Description: as §1, §2

HIV protease = HIV protease (Human immunodeficiency virus type 1 group M subtype B, UniProt P04585); assay: Enzymatic (fluorometric FRET) assay for determining the inhibition constant (Ki); format: biochemical; conditions: Ki, EDANS/DABCYL substrate, equation of Henderson
Description: Enzymatic assay for determining the inhibition constant (Ki) of synthetic compounds targeting the HIV protease
This is a fluorometric assay based on the cleavage by protease of a substrate carrying a donor group (EDANS) and an acceptor group (DABCYL) on each side of the cleavage site, interacting together through fluorescence resonance energy transfer (FRET) as described by Matayoshi et al. (Science 247:[…], 1990).
After calculation of Vo and Vi, the inhibition constant (Ki) of the compound is determined using the equation of Henderson: (Vo)/(Vi) = 1 + ([I])/(Kiapp) Where Ki = (Kiapp)/((1 + [S])/(Km)) [formula] where Vo = the enzyme's initial velocity Vi = the enzyme velocity in the presence of the inhibitory compound, [I] = inhibitor concentration, [S] = substrate concentration, Km = Michaelis-Menten constant and Kiapp = apparent Ki
Graphs are traced and the Ki determined using GraphPad Prism software v. 3.0.

[2] = cell culture IC50, same MTT assay with virus omitted, average of at least two determinations

| SMILES | EC50 [1] | CCIC50 (MT-4; [2]) | Ki (HIV protease) | CCIC50 (MT-4; human, 6 days) |
| --- | --- | --- | --- | --- |
| Cc1ccc(S(=O)(=O)N(CC(C)C)[C@H](CO)CCCCNC(=O)N(Cc2ccccc2)Cc2ccccc2[N+](=O)[O-])cc1 [Example 59, (2S) 2-N-isobutyl-2-N-(4-methylbenzenesulfonyl)-6-N-[N'-benzyl-N'-(2-nitrobenzyl)aminocarbonyl]-2,6-diaminohexanol] | 385 nM | 4.6 µM | – | – |
| Cc1ccc(S(=O)(=O)N(CC(C)C)[C@H](CO)CCCCNC(=O)N(Cc2ccccc2)Cc2cccc([N+](=O)[O-])c2)cc1 [Example 60, (2S) 2-N-isobutyl-2-N-(4-methylbenzenesulfonyl)-6-N-[N'-benzyl-N'-(3-nitrobenzyl)aminocarbonyl]-2,6-diaminohexanol] | 1800 nM | 4.6 µM | – | – |
| Cc1ccc(S(=O)(=O)N(CC(C)C)[C@H](CO)CCCCNC(=O)N(Cc2ccccc2)Cc2ccc([N+](=O)[O-])cc2)cc1 [Example 61, (2S) 2-N-isobutyl-2-N-(4-methylbenzenesulfonyl)-6-N-[N'-benzyl-N'-(4-nitrobenzyl)aminocarbonyl]-2,6-diaminohexanol] | 3800 nM | 5.1 µM | – | – |
| CC(C)CN([C@H](CO)CCCCNC(=O)N(Cc1ccc(F)cc1)Cc1ccc2c(c1)OCO2)S(=O)(=O)c1ccc(N)cc1 [Example 67, (2S) 2-N-(4-aminobenzenesulfonyl)-2-N-isobutyl-6-N-[N'-(4-fluorobenzyl)-N'-piperonylaminocarbonyl]-2,6-diaminohexanol] | 488 nM | 11 µM | – | – |
| CC(C)CN([C@H](CO)CCCCNC(=O)N(Cc1ccccc1)Cc1ccc2c(c1)OCO2)S(=O)(=O)c1ccc(N)cc1 [Example 82, (2S) 2-N-(4-aminobenzenesulfonyl)-2-N-isobutyl-6-N-(N'-benzyl-N'-piperonylaminocarbonyl)-2,6-diaminohexanol] | 1400 nM | 12.5 µM | – | – |
| CC(C)CN([C@H](CO)CCCCNC(=O)N(Cc1ccc2c(c1)OCO2)Cc1ccc2c(c1)OCO2)S(=O)(=O)c1ccc(N)cc1 [Example 85, (2S) 2-N-(4-aminobenzenesulfonyl)-2-N-isobutyl-6-N-(N',N'-dipiperonylaminocarbonyl)-2,6-diaminohexanol] | 130 nM | 13.1 µM | – | – |
| CC(C)CCN([C@H](CO)CCCCNC(=O)N(Cc1ccncc1)Cc1ccc2c(c1)OCO2)S(=O)(=O)c1ccc(N)cc1 [Example 95, (2S) 2-N-(4-aminobenzenesulfonyl)-2-N-(3-methylbutyl)-6-N-[N'-(4-picolyl)-N'-piperonylaminocarbonyl]-2,6-diaminohexanol] | 550 nM | – | 7.1 nM | 28.8 µM |
| CC(C)CCN([C@H](CO)CCCCNC(=O)N(Cc1ccc(F)cc1)Cc1ccc2c(c1)OCO2)S(=O)(=O)c1ccc(N)cc1 [Example 102, (2S) 2-N-(4-aminobenzenesulfonyl)-2-N-(3-methylbutyl)-6-N-[N'-(4-fluorobenzyl)-N'-piperonylaminocarbonyl]-2,6-diaminohexanol] | 1200 nM | – | 4.9 nM | 24.4 µM |
| COc1cccc(CN(Cc2ccc3c(c2)OCO3)C(=S)NCCCC[C@@H](CO)N(CCC(C)C)S(=O)(=O)c2ccc(N)cc2)c1 [Example 105, (2S) 2-N-(4-aminobenzenesulfonyl)-2-N-(3-methylbutyl)-6-N-[N'-(3-methoxybenzyl)-N'-piperonylaminothiocarbonyl]-2,6-diaminohexanol] | – | – | 2.6 nM | – |
| COc1ccc(CN(Cc2ccc3c(c2)OCO3)C(=S)NCCCC[C@@H](CO)N(CCC(C)C)S(=O)(=O)c2ccc(N)cc2)cc1OC [Example 106, (2S) 2-N-(4-aminobenzenesulfonyl)-2-N-(3-methylbutyl)-6-N-[N'-(3,4-dimethoxybenzyl)-N'-piperonylaminothiocarbonyl]-2,6-diaminohexanol] | – | – | 2.9 nM | – |
| COc1cc(CN(Cc2ccc3c(c2)OCO3)C(=S)NCCCC[C@@H](CO)N(CCC(C)C)S(=O)(=O)c2ccc(N)cc2)cc(OC)c1OC [Example 107, (2S) 2-N-(4-aminobenzenesulfonyl)-2-N-(3-methylbutyl)-6-N-[N'-(3,4,5-trimethoxybenzyl)-N'-piperonylaminothiocarbonyl]-2,6-diaminohexanol] | 680 nM | – | 4.9 nM | 10.7 µM |
| CC(C)CCN([C@H](CO)CCCCNC(=S)N(Cc1ccc(F)cc1)Cc1ccc2c(c1)OCCO2)S(=O)(=O)c1ccc(N)cc1 [Example 108, (2S) 2-N-(4-aminobenzenesulfonyl)-2-N-(3-methylbutyl)-6-N-[N"(4-fluorobenzyl)-N'-(3,4-ethylenedioxy)benzylaminothiocarbonyl]-2,6-diaminohexanol] | – | – | 9.9 nM | – |
| COc1ccc(CN(Cc2ccc3c(c2)OCO3)C(=S)NCCCC[C@@H](CO)N(CCC(C)C)S(=O)(=O)c2ccc(N)cc2)cc1 [Example 109, (2S) 2-N-(4-aminobenzenesulfonyl)-2-N-(3-methylbutyl)-6-N-[N'-(4-methoxybenzyl)-N'-piperonylaminothiocarbonyl]-2,6-diaminohexanol] | – | – | 3.6 nM | – |
| COc1cccc(CN(Cc2ccc3c(c2)OCO3)C(=O)NCCCC[C@@H](CO)N(CCC(C)C)S(=O)(=O)c2ccc(N)cc2)c1 [Example 110, (2S) 2-N-(4-aminobenzenesulfonyl)-2-N-(3-methylbutyl)-6-N-[N'-(3-methoxybenzyl)-N'-piperonylaminocarbonyl]-2,6-diaminohexanol] | 350 nM | – | 2.2 nM | – |
